Assay results from the supplement of paper PMC11616607.

Columns and labels:
Test in all cases: drug sensitivity score (DSS) from 5-point dose-response viability curve (DSS (area-under-curve based score)); higher = more sensitive (stronger growth inhibition or killing); extreme values may be limits of the assay
Settings in all cases: exposure time: 72 h; concentration range: 5 concentrations over 10,000-fold range
[1] = system: CAOV3
Summary of the method: (§1)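 Viability of ovarian cancer and normal ovarian cell lines was read by CellTiter-Glo luminescence after 3 days at 37°C and 5% CO2 in 384-well plates holding 1,500 cells per well. Drugs had been dispensed in DMSO or water with an Echo 550 at five concentrations over a 10,000-fold range. Using Breeze software, a drug sensitivity score was assigned per cell line and drug, higher scores meaning more sensitive, and zero means no response.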

[2] = system: COV318
Summary of the method: as §1

[3] = system: COV362
Summary of the method: as §1

[4] = system: HOSE1C
Summary of the method: as §1

[5] = system: HOSE2C
Summary of the method: as §1

[6] = system: JHOS2
Summary of the method: as §1

[7] = system: Kuramochi
Summary of the method: as §1

[8] = system: OV90
Summary of the method: as §1

[9] = system: OVCAR4
Summary of the method: as §1

[10] = system: OVCAR5
Summary of the method: as §1

[11] = system: OVCAR8
Summary of the method: as §1

[12] = system: Ovsaho
Summary of the method: as §1

Nc1ncn([C@@H]2O[C@H](CO)[C@@H](O)[C@H]2O)c(=O)n1 [Azacitidine]
drug sensitivity score [1]: 1.7
drug sensitivity score [2]: 1.1
drug sensitivity score [3]: 0.7
drug sensitivity score [4]: 0
drug sensitivity score [5]: 0
drug sensitivity score [6]: 4.4
drug sensitivity score [7]: 0.9
drug sensitivity score [8]: 3.8
drug sensitivity score [9]: 1.6
drug sensitivity score [10]: 2.2
drug sensitivity score [11]: 3.4
drug sensitivity score [12]: 3.5

Cc1cc(-c2nc(-c3ccc(OC(F)(F)F)cc3)no2)nn1Cc1ccnc(N2CCN(C3CC3)CC2)c1 [BAY 87-2243]
drug sensitivity score [1]: 8.4
drug sensitivity score [2]: 2.7
drug sensitivity score [3]: 0
drug sensitivity score [4]: 0
drug sensitivity score [5]: 0
drug sensitivity score [6]: 0
drug sensitivity score [7]: 2.7
drug sensitivity score [8]: 23.3
drug sensitivity score [9]: 4.7
drug sensitivity score [10]: 4.8
drug sensitivity score [11]: 28.8
drug sensitivity score [12]: 1.6

CC[C@@H]1C(=O)N(C)c2cnc(Nc3ccc(C(=O)NC4CCN(C)CC4)cc3OC)nc2N1C1CCCC1 [BI 2536]
drug sensitivity score [1]: 18.3
drug sensitivity score [2]: 3.9
drug sensitivity score [3]: 2.1
drug sensitivity score [4]: 12.5
drug sensitivity score [5]: 8.7
drug sensitivity score [6]: 11.9
drug sensitivity score [7]: 11.4
drug sensitivity score [8]: 15
drug sensitivity score [9]: 3.9
drug sensitivity score [10]: 17.7
drug sensitivity score [11]: 23.5
drug sensitivity score [12]: 19.7

COc1c(C)cnc(Cn2cnc3c(Cl)nc(N)nc32)c1C [BIIB021]
drug sensitivity score [1]: 16
drug sensitivity score [2]: 7
drug sensitivity score [3]: 9.5
drug sensitivity score [4]: 15
drug sensitivity score [5]: 20.5
drug sensitivity score [6]: 20.6
drug sensitivity score [7]: 9
drug sensitivity score [8]: 18.5
drug sensitivity score [9]: 9.9
drug sensitivity score [10]: 17.3
drug sensitivity score [11]: 19.7
drug sensitivity score [12]: 3.3

CC1(C)C(C(=O)Nc2ccc(S(=O)(=O)c3ccc(NC(=O)C4C(C)(C)C4(C)C)cc3)cc2)C1(C)C [BRD7116]
drug sensitivity score [1]: 0.3
drug sensitivity score [2]: 0.1
drug sensitivity score [3]: 0
drug sensitivity score [4]: 0
drug sensitivity score [5]: 0
drug sensitivity score [6]: 0.7
drug sensitivity score [7]: 2.1
drug sensitivity score [8]: 0
drug sensitivity score [9]: 2.1
drug sensitivity score [10]: 2.1
drug sensitivity score [11]: 0
drug sensitivity score [12]: 3.8

O=C(Nc1cccc(Nc2ncc(Br)c(NCCc3cnc[nH]3)n2)c1)N1CCCC1 [BX-912]
drug sensitivity score [1]: 10.3
drug sensitivity score [2]: 0.4
drug sensitivity score [3]: 1.3
drug sensitivity score [4]: 4.5
drug sensitivity score [5]: 8
drug sensitivity score [6]: 2.5
drug sensitivity score [7]: 1.4
drug sensitivity score [8]: 7.4
drug sensitivity score [9]: 3.7
drug sensitivity score [10]: 2.4
drug sensitivity score [11]: 4.7
drug sensitivity score [12]: 3.5

Cc1ccc(NC(=O)c2ccc(CN3CC[C@H](N(C)C)C3)c(C(F)(F)F)c2)cc1Nc1nccc(-c2cncnc2)n1 [Bafetinib]
drug sensitivity score [1]: 0
drug sensitivity score [2]: 0
drug sensitivity score [3]: 0
drug sensitivity score [4]: 0
drug sensitivity score [5]: 0
drug sensitivity score [6]: 0
drug sensitivity score [7]: 0
drug sensitivity score [8]: 3
drug sensitivity score [9]: 0
drug sensitivity score [10]: 0
drug sensitivity score [11]: 0
drug sensitivity score [12]: 0

CCS(=O)(=O)N1CC(CC#N)(n2cc(-c3ncnc4[nH]ccc34)cn2)C1 [Baricitinib]
drug sensitivity score [1]: 0
drug sensitivity score [2]: 0
drug sensitivity score [3]: 0
drug sensitivity score [4]: 0
drug sensitivity score [5]: 0
drug sensitivity score [6]: 0
drug sensitivity score [7]: 0
drug sensitivity score [8]: 0
drug sensitivity score [9]: 0
drug sensitivity score [10]: 0
drug sensitivity score [11]: 0
drug sensitivity score [12]: 0

O=C(/C=C/c1cccc(S(=O)(=O)Nc2ccccc2)c1)NO [Belinostat]
drug sensitivity score [1]: 13.6
drug sensitivity score [2]: 9.1
drug sensitivity score [3]: 7.3
drug sensitivity score [4]: 23.4
drug sensitivity score [5]: 18.1
drug sensitivity score [6]: 10
drug sensitivity score [7]: 10.2
drug sensitivity score [8]: 13.5
drug sensitivity score [9]: 8.6
drug sensitivity score [10]: 17.2
drug sensitivity score [11]: 18.2
drug sensitivity score [12]: 11.7

N#CC(c1ccnc(OCc2ccc(CN3CCOCC3)cc2)n1)c1nc2ccccc2s1 (stereo not drawn) [Bentamapimod]
drug sensitivity score [1]: 1.5
drug sensitivity score [2]: 1.3
drug sensitivity score [3]: 3.8
drug sensitivity score [4]: 0
drug sensitivity score [5]: 0.3
drug sensitivity score [6]: 1.4
drug sensitivity score [7]: 2
drug sensitivity score [8]: 5.5
drug sensitivity score [9]: 1.8
drug sensitivity score [10]: 4.5
drug sensitivity score [11]: 2.3
drug sensitivity score [12]: 1.1

C=C(c1ccc(C(=O)O)cc1)c1cc2c(cc1C)C(C)(C)CCC2(C)C [Bexarotene]
drug sensitivity score [1]: 1.5
drug sensitivity score [2]: 0.1
drug sensitivity score [3]: 0
drug sensitivity score [4]: 0
drug sensitivity score [5]: 0
drug sensitivity score [6]: 1.3
drug sensitivity score [7]: 0.1
drug sensitivity score [8]: 1.3
drug sensitivity score [9]: 0
drug sensitivity score [10]: 0
drug sensitivity score [11]: 0.1
drug sensitivity score [12]: 0

CC(O)(CS(=O)(=O)c1ccc(F)cc1)C(=O)Nc1ccc(C#N)c(C(F)(F)F)c1 (stereo not drawn) [Bicalutamide]
drug sensitivity score [1]: 0
drug sensitivity score [2]: 0
drug sensitivity score [3]: 0
drug sensitivity score [4]: 8.4
drug sensitivity score [5]: 0
drug sensitivity score [6]: 0
drug sensitivity score [7]: 0.2
drug sensitivity score [8]: 0
drug sensitivity score [9]: 0.5
drug sensitivity score [10]: 0.7
drug sensitivity score [11]: 0.3
drug sensitivity score [12]: 0

CCNC(=O)CCC/C=C\C[C@@H]1[C@@H](/C=C/[C@@H](O)CCc2ccccc2)[C@H](O)C[C@@H]1O [Bimatoprost]
drug sensitivity score [1]: 0
drug sensitivity score [2]: 0
drug sensitivity score [3]: 0
drug sensitivity score [4]: 0
drug sensitivity score [5]: 0
drug sensitivity score [6]: 0
drug sensitivity score [7]: 0
drug sensitivity score [8]: 0
drug sensitivity score [9]: 0
drug sensitivity score [10]: 0
drug sensitivity score [11]: 0
drug sensitivity score [12]: 0

Cn1cnc2c(F)c(Nc3ccc(Br)cc3F)c(C(=O)NOCCO)cc21 [Binimetinib]
drug sensitivity score [1]: 7.6
drug sensitivity score [2]: 0
drug sensitivity score [3]: 1.3
drug sensitivity score [4]: 0
drug sensitivity score [5]: 0
drug sensitivity score [6]: 1.5
drug sensitivity score [7]: 3.5
drug sensitivity score [8]: 13.4
drug sensitivity score [9]: 1.7
drug sensitivity score [10]: 7.1
drug sensitivity score [11]: 0
drug sensitivity score [12]: 6.2
